Test results reported in patent US20150099883A1, “ARYLOXYUREA COMPOUND AND PEST CONTROL AGENT” (NIPPON SODA CO., LTD., priority 2012, published 2015).

Legend:
[1] = system: adult female Tetranychus kanzawai from Okayama Prefecture; experiment: Efficacy test against Tetranychus kanzawai (spray on kidney bean plant); type: in vivo; settings: 500 ppm emulsion sprayed
Protocol: Ten adult female Tetranychus kanzawai acarus from Okayama Prefecture were inoculated onto the first leaves of a kidney bean plant planted in a No. 3 pot 7 to 10 days after germination. Next, an emulsion was prepared having the formula indicated in the aforementioned Preparation example 2. This emulsion was diluted with water to a compound concentration of 500 ppm or 125 ppm after which the diluted liquids were sprayed onto the kidney bean plant. The kidney bean plant was then placed in a temperature-controlled room at a temperature of 25° C. and humidity of 65%. The life and death of the adult insects were investigated 3 days after the spraying. In addition, the development from eggs laid to adult was investigated 14 days after the spraying.
The aforementioned test was carried out on the emulsion containing the Compound No. 2-1 at 500 ppm. As a result, the insect mortality rates after 3 days and 14 days for the compound were 90% or higher.

CC(C)(NC(=O)NOc1ccc2ncsc2c1)c1ccccn1
melting point: 164 to 166 °C

CCN(Oc1ccc2ncsc2c1)C(=O)N=S(C)(=O)c1ccccc1 (stereo not drawn) [Compound No. 2-1]
insect mortality rate after 3 days ([1]; 3 days after spraying): ≥ 90% | insect mortality rate after 14 days ([1]; 14 days after spraying): ≥ 90%
